Results: patent US9255101B2 (BIOPROJECT, priority 2012, dated 2016)
Structures can show the parent of a compound that is named as a salt.

Columns and labels:
[1] = biological target: T1, human H4 receptor (Homo sapiens, UniProt Q9H3N8); assay: biochemical
[2] = biological target: T1, human H4 receptor; assay: biochemical; remark: listed apart in the source
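For IC50 in this document: membranes from SH-SY5Y cells with stable human H4 receptor expression, incubated with GDP 10 µM, radioactivity retained on filters counted by liquid scintillation.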
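For Ki in this document: radioligand displacement of a [3H]-labelled ligand from membranes of CHO cells stably expressing human H4 receptor, bound radioactivity counted on filters by liquid scintillation.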

T1 sequence (Q9H3N8 whole entry): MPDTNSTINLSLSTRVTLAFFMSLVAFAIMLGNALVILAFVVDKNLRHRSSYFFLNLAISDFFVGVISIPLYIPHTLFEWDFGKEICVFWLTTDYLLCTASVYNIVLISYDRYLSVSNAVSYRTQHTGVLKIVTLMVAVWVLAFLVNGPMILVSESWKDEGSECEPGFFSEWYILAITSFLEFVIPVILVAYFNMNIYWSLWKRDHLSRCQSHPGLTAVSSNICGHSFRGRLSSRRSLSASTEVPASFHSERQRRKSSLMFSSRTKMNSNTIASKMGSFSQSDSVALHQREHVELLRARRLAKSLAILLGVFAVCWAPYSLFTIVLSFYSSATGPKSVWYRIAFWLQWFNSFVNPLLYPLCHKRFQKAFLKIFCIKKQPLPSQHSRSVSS

CN1CCC(OC2c3ccccc3CCn3cc(C4=CCCCCC4)nc32)CC1 (stereo not drawn) [Example 80, 2-cyclohept-1-enyl-4-(1-methylpiperidin-4-yloxy)-9,10-dihydro-4H-3,10a-diaza-benzo[f]azulene]
Ki [1]: < 30 nM | IC50 [2]: < 300 nM

Cc1c(-c2ccc(SCc3ccco3)cc2)nc2n1CCc1ccccc1C2OC1CCN(C)CC1 (stereo not drawn) [Example 167, 2-[4-(furan-2-ylmethylsulfanyl)-phenyl]-1-methyl-4-(1-methylpiperidin-4-yloxy)-9,10-dihydro-4H-3,10a-diaza-benzo[f]azulene oxalate]
Ki [1]: < 30 nM | IC50 [2]: < 30 nM

CN1CCC(OC2c3ccccc3CCn3cc(-c4ccc(C(=O)C(F)(F)F)cc4)nc32)CC1 (stereo not drawn) [Example 31, 2,2,2-trifluoro-1-{4-[4-(1-methylpiperidin-4-yloxy)-9,10-dihydro-4H-3,10a-diaza-benzo[f]azulen-2-yl]-phenyl}-ethanone oxalate]
Ki [1]: < 300 nM | IC50 [2]: < 30 nM

CCCc1ccc(-c2cn3c(n2)C(OC2CCN(C)CC2)c2ccccc2CC3)cc1 (stereo not drawn) [Example 22, 4-(1-methylpiperidin-4-yloxy)-2-(4-propylphenyl)-9,10-dihydro-4H-3,10a-diaza-benzo[f]azulene]
Ki [1]: < 30 nM | IC50 [2]: < 300 nM

CN1CCC(OC2c3ccccc3CCn3cc(CCCCc4ccccc4)nc32)CC1 (stereo not drawn) [Example 129, 4-(1-methylpiperidin-4-yloxy)-2-(4-phenylbutyl)-9,10-dihydro-4H-3,10a-diaza-benzo[f]azulene oxalate]
Ki [1]: < 30 nM | IC50 [2]: < 30 nM

CC(=O)NCCSc1ccc(-c2nc3n(c2C)CCc2ccccc2C3OC2CCN(C)CC2)cc1 (stereo not drawn) [Example 163, N-(2-{4-[1-methyl-4-(1-methylpiperidin-4-yloxy)-9,10-dihydro-4H-3,10a-diaza-benzo[f]azulen-2-yl]-phenylsulfanyl}-ethyl)-acetamide oxalate]
Ki [1]: < 30 nM | IC50 [2]: < 30 nM

CN1CCC(OC2c3ccccc3CCn3cc(-c4ccc(CC#N)cc4)nc32)CC1 (stereo not drawn) [Example 33, {4-[4-(1-methylpiperidin-4-yloxy)-9,10-dihydro-4H-3,10a-diaza-benzo[f]azulen-2-yl]-phenyl}-acetonitrile oxalate]
Ki [1]: < 300 nM | IC50 [2]: < 300 nM

CN1CCC(OC2c3ccccc3CCn3cc(SCCc4ccccc4)nc32)CC1 (stereo not drawn) [Example 119, 4-(1-methylpiperidin-4-yloxy)-2-phenethylsulfanyl-9,10-dihydro-4H-3,10a-diaza-benzo[f]azulene]
Ki [1]: < 30 nM | IC50 [2]: < 30 nM

CC(=O)c1ccc(-c2cn3c(n2)C(OC2CCN(C)CC2)c2ccccc2CC3)cc1 (stereo not drawn) [Example 11, 1-{4-[4-(1-methylpiperidin-4-yloxy)-9,10-dihydro-4H-3,10a-diaza-benzo[f]azulen-2-yl]-phenyl}ethanone]
Ki [1]: < 30 nM | IC50 [2]: < 300 nM

Cc1c(-c2ccc(C=CS(C)(=O)=O)cc2)nc2n1CCc1ccccc1C2OC1CCN(C)CC1 (stereo not drawn) [Example 158, 2-[4-(2-methanesulfonyl-vinyl)-phenyl]-1-methyl-4-(1-methylpiperidin-4-yloxy)-9,10-dihydro-4H-3,10a-diaza-benzo[f]azulene]
Ki [1]: < 30 nM | IC50 [2]: < 30 nM

CCCCCCc1ccc(-c2cn3c(n2)C(OC2CCN(C)CC2)c2ccccc2CC3)cc1 (stereo not drawn) [Example 43, 2-(4-hexylphenyl)-4-(1-methylpiperidin-4-yloxy)-9,10-dihydro-4H-3,10a-diaza-benzo[f]azulene]
Ki [1]: < 300 nM | IC50 [2]: < 300 nM

Cc1c(C=CC(C)(C)C)nc2n1CCc1ccccc1C2OC1CCN(C)CC1 (stereo not drawn) [Example 225, 2-(3,3-dimethyl-but-1-enyl)-1-methyl-4-(1-methylpiperidin-4-yloxy)-9,10-dihydro-4H-3,10a-diaza-benzo[f]azulene]
Ki [1]: < 30 nM | IC50 [2]: < 30 nM

CN1CCC(OC2c3ccccc3CCn3cc(C4=CCCCC4)nc32)CC1 (stereo not drawn) [Example 62, 2-cyclohex-1-enyl-4-(1-methylpiperidin-4-yloxy)-9,10-dihydro-4H-3,10a-diaza-benzo[f]azulene oxalate]
Ki [1]: < 300 nM | IC50 [2]: < 300 nM

CN1CCC(OC2c3ccccc3CCn3cc(-c4ccc(OC(F)(F)F)cc4)nc32)CC1 (stereo not drawn) [Example 15, 4-(1-methylpiperidin-4-yloxy)-2-(4-trifluoromethoxyphenyl)-9,10-dihydro-4H-3,10a-diaza-benzo[f]azulene oxalate]
Ki [1]: < 30 nM | IC50 [2]: < 30 nM

CN1CCC(OC2c3ccccc3CCn3cc(SCc4cccs4)nc32)CC1 (stereo not drawn) [Example 88, 4-(1-methylpiperidin-4-yloxy)-2-(thiophen-2-ylmethylsulfanyl)-9,10-dihydro-4H-3,10a-diaza-benzo[f]azulene oxalate]
Ki [1]: < 300 nM | IC50 [2]: < 1000 nM

CN1CCC(OC2c3ccccc3CCn3cc(-c4ccc(S(=O)(=O)N(C)C)cc4)nc32)CC1 (stereo not drawn) [Example 29, N,N-dimethyl-4-[4-(1-methylpiperidin-4-yloxy)-9,10-dihydro-4H-3,10a-diaza-benzo[f]azulen-2-yl]-benzenesulfonamide]
Ki [1]: < 300 nM | IC50 [2]: < 300 nM

CCCCCc1ccc(-c2cn3c(n2)C(OC2CCN(C)CC2)c2ccccc2CC3)cc1 (stereo not drawn) [Example 42, 4-(1-methylpiperidin-4-yloxy)-2-(4-pentylphenyl)-9,10-dihydro-4H-3,10a-diaza-benzo[f]azulene]
Ki [1]: < 30 nM | IC50 [2]: < 30 nM

CN1CCC(OC2c3ccccc3CCn3cc(-c4cccc(Cl)c4)nc32)CC1 (stereo not drawn) [Example 77, 2-(3-chlorophenyl)-4-(1-methylpiperidin-4-yloxy)-9,10-dihydro-4H-3,10a-diaza-benzo[f]azulene oxalate]
Ki [1]: < 30 nM | IC50 [2]: < 300 nM

CN1CCC(OC2c3ccccc3CCn3cc(-c4ccc5c(c4)OCO5)nc32)CC1 (stereo not drawn) [Example 50, 2-benzo[1,3]dioxol-5-yl-4-(1-methylpiperidin-4-yloxy)-9,10-dihydro-4H-3,10a-diaza-benzo[f]azulene]
Ki [1]: < 30 nM | IC50 [2]: < 1000 nM

Cc1c(-c2ccccc2)nc2n1CCc1ccccc1C2OC1CCN(C)CC1 (stereo not drawn) [Example 103, 1-Methyl-4-(1-methyl-piperidin-4-yloxy)-2-phenyl-9,10-dihydro-4H-3,10a-diaza-benzo[f]azulene]
Ki [1]: < 30 nM | IC50 [2]: < 30 nM

CN1CCC(OC2c3ccccc3CCn3cc(C=Cc4ccsc4)nc32)CC1 (stereo not drawn) [Example 112, 4-(1-methylpiperidin-4-yloxy)-2-(2-thiophen-3-ylvinyl)-9,10-dihydro-4H-3,10a-diaza-benzo[f]azulene]
Ki [1]: < 30 nM | IC50 [2]: < 30 nM

CN1CCC(OC2c3ccccc3CCn3cc(-c4cccc(F)c4)nc32)CC1 (stereo not drawn) [Example 68, 2-(3-fluorophenyl)-4-(1-methylpiperidin-4-yloxy)-9,10-dihydro-4H-3,10a-diaza-benzo[f]azulene oxalate]
Ki [1]: < 30 nM | IC50 [2]: < 300 nM

CCCCc1ccc(-c2cn3c(n2)C(OC2CCN(C)CC2)c2ccccc2CC3)cc1 (stereo not drawn) [Example 41, 2-(4-butylphenyl)-4-(1-methylpiperidin-4-yloxy)-9,10-dihydro-4H-3,10a-diaza-benzo[f]azulene oxalate]
Ki [1]: < 30 nM | IC50 [2]: < 300 nM

Cc1c(-c2ccccc2)nc2n1CCc1ccccc1C2OC1CCN(C)CC1 (single isomer, unassigned) [Example 135B, 1-methyl-4-(1-methyl-piperidin-4-yloxy)-2-phenyl-9,10-dihydro-4H-3,10a-diaza-benzo[f]azulene]
Ki [1]: < 30 nM | IC50 [2]: < 30 nM

CN1CCC(OC2c3ccccc3CCn3cc(-c4ccc(C(C)(F)F)cc4)nc32)CC1 (stereo not drawn) [Example 64, 2-[4-(1,1-difluoroethyl)-phenyl]-4-(1-methylpiperidin-4-yloxy)-9,10-dihydro-4H-3,10a-diaza-benzo[f]azulene oxalate]
Ki [1]: < 300 nM | IC50 [2]: < 30 nM

CN1CCC(OC2c3ccccc3CCn3cc(C4=CCCC4)nc32)CC1 (stereo not drawn) [Example 65, 2-cyclopent-1-enyl-4-(1-methylpiperidin-4-yloxy)-9,10-dihydro-4H-3,10a-diaza-benzo[f]azulene]
Ki [1]: < 300 nM | IC50 [2]: < 1000 nM

CCSc1ccc(-c2cn3c(n2)C(OC2CCN(C)CC2)c2ccccc2CC3)cc1 (stereo not drawn) [Example 46, 2-(4-ethylsulfanylphenyl)-4-(1-methylpiperidin-4-yloxy)-9,10-dihydro-4H-3,10a-diaza-benzo[f]azulene oxalate]
Ki [1]: < 30 nM | IC50 [2]: < 30 nM

Cc1ccc(-c2cn3c(n2)C(OC2CCN(C)CC2)c2ccccc2CC3)cc1 (stereo not drawn) [Example 5, 4-(1-methylpiperidin-4-yloxy)-2-p-tolyl-9,10-dihydro-4H-3,10a-diaza-benzo[f]azulene]
Ki [1]: < 30 nM | IC50 [2]: < 300 nM

CN1CCC(OC2c3ccccc3CCn3c2nc(-c2ccccc2)c3C(N)=O)CC1 (stereo not drawn) [Example 254, 4-(1-methylpiperidin-4-yloxy)-2-phenyl-9,10-dihydro-4H-3,10a-diaza-benzo[f]azulene-1-carboxylic acid amide]
Ki [1]: < 300 nM | IC50 [2]: < 300 nM

CN1CCC(OC2c3ccccc3CCn3c2nc(I)c3I)CC1 (stereo not drawn) [Example 219, 1,2-diiodo-4-(1-methylpiperidin-4-yloxy)-9,10-dihydro-4H-3,10a-diaza-benzo[f]azulene]
Ki [1]: < 30 nM | IC50 [2]: < 30 nM

CN1CCC(OC2c3ccccc3CCn3cc(CCCCCc4ccccc4)nc32)CC1 (stereo not drawn) [Example 90, 4-(1-methylpiperidin-4-yloxy)-2-(5-phenylpentyl)-9,10-dihydro-4H-3,10a-diaza-benzo[f]azulene oxalate]
Ki [1]: < 30 nM | IC50 [2]: < 30 nM

CN1CCC(OC2c3ccccc3CCn3cc(CCC(C)(C)C)nc32)CC1 (stereo not drawn) [Example 94, 2-(3,3-dimethylbutyl)-4-(1-methylpiperidin-4-yloxy)-9,10-dihydro-4H-3,10a-diaza-benzo[f]azulene]
Ki [1]: < 30 nM | IC50 [2]: < 30 nM

CN1CCC(OC2c3ccccc3CCn3c2nc(-c2ccccc2)c3C(F)(F)F)CC1 (stereo not drawn) [Example 255, 4-(1-methylpiperidin-4-yloxy)-2-phenyl-1-trifluoromethyl-9,10-dihydro-4H-3,10a-diaza-benzo[f]azulene]
Ki [1]: < 30 nM | IC50 [2]: < 300 nM
